In test [1] the target is T1, ChtA^CR (WT) (Corynebacterium diphtheriae, UniProt Q6NGJ3).
T1 construct: gene DIP1520; CR domain, ChtA residues 112-291 (K112-G291); N-terminal SUMO/6xHis tag removed by ULP1; apo-form
Briefly: Isothermal titration calorimetry with apo-protein injected into hemin chloride at 25 °C in 50 mM Tris-HCl pH 8.0, 200 mM NaCl, 5% DMSO, fitted to a one-site binding model. To be noted: SEM, n = 3. An excerpt: (§1) Isothermal titration calorimetry
(§2) Protein samples were equilibrated in titration buffer supplemented with 5% (v/v) DMSO. […] Binding isotherms were fit to a one-site binding model using the program ORIGIN ([91]).
For orientation: Isothermal titration calorimetry measures the heat released or taken up as one component is titrated into another.

The target in test [2] is T2, K177G (Corynebacterium diphtheriae, UniProt Q6NGJ3, K177G).
T2 construct: gene DIP1520; CR domain, ChtA residues 112-291; N-terminal SUMO/6xHis tag removed by ULP1; apo-form
The test is described as above. The following applies: SEM, n = 3.
Text: as §1, §2

Test [3] has as its target T3, K177G + Y178H (Corynebacterium diphtheriae, UniProt Q6NGJ3, K177G/Y178H).
T3 construct: gene DIP1520; CR domain, ChtA residues 112-291; N-terminal SUMO/6xHis tag removed by ULP1; apo-form
The description is as above. To be noted: SEM, n = 3.
Text: as §1, §2

Test [4] concerns the target T4, Y129A (Corynebacterium diphtheriae, UniProt Q6NGJ3, Y129A).
T4 construct: gene DIP1520; CR domain, ChtA residues 112-291; N-terminal SUMO/6xHis tag removed by ULP1; apo-form
The test is described as above. To be noted: n = 3.
Text: as §1, §2

For test [5], the target named is T5, Y178A (Corynebacterium diphtheriae, UniProt Q6NGJ3, Y178A).
T5 construct: gene DIP1520; CR domain, ChtA residues 112-291; N-terminal SUMO/6xHis tag removed by ULP1; apo-form
The test is described as above. The following applies: SEM, n = 3.
Text: as §1, §2

The target of test [6] is T6, Y178H (Corynebacterium diphtheriae, UniProt Q6NGJ3, Y178H).
T6 construct: gene DIP1520; CR domain, ChtA residues 112-291; N-terminal SUMO/6xHis tag removed by ULP1; apo-form
The description is as above. The following applies: SEM, n = 3.
Text: as §1, §2

In test [7] the target is T7, HtaA^CR1 (Corynebacterium diphtheriae, UniProt Q6NIZ1).
T7 construct: gene DIP0625; N-terminal CR domain CR1, HtaA residues 36-221 (methods; S37-G214 in results); N-terminal SUMO/6xHis tag removed by ULP1
Briefly: Hemin partitioning between pairs of CR domains at equilibrium measured by native nano-ESI-MS in 50 mM ammonium acetate pH 6.9 at 24 °C, with Krel converted to KD using the ITC KD of ChtA^CR as reference. In kind it is binding. To be noted: read-out: estimated KD values for hemin. An excerpt: (§3) The C. diphtheriae hemin-uptake system contains six CR domains that are located at distinct sites outside the cell (Fig. 1). […] Together, they represent nearly the full complement of C. diphtheriae’s CR domains (only the domains from ChtB and ChtC are missing, but they are expected to have similar binding properties as their paralogs, HtaB and ChtA, respectively). […] Similar measurements were made for the following protein pairs: HtaA^CR2/HtaB^CR, HtaA^CR1/HtaB^CR, HtaA^CR2/HtaA^CR1, ChtA^CR/HtaA^CR2, and ChtA^CR/HtaB^CR (Table S4).
(§4) nESI-MS was used for ligand (heme)-competition experiments between CR domain pairs to determine their relative heme dissociation constant Krelative (Krel) ([37], [56]). In this approach, two different CR domains (e.g. a >90% heme-loaded “heme donor” and a <10% heme-loaded “heme acceptor” CR domain) are mixed and allowed to come to equilibrium (>6 h, 24 °C). The resulting mixture is then analyzed by nESI-MS, where the apo- and holo-abundance of each CR domain is determined from the sum peak intensity from each of their charge states as described previously ([37]). The relative affinity between the CR pair tested can be determined by their nESI-MS abundances according to Equation 1, which is derived from the ratio of each CR’s KD for heme. Importantly, this analysis is independent of [heme] and Krel should be consistent across different concentrations of [heme donor] and [heme acceptor]; thus, we used at least three different holo-donor and apo-acceptor stoichiometry ratios to determine each Krel reported in Table S4.(eq. 1) KRelative=[CR^hemeacceptor][CR^hemedonor·heme]/[CR^hemedonor][CR^hemeacceptor·heme]=Ab(CR^hemeacceptor)Ab(CR^hemedonor·heme)/Ab(CR^hemedonor)Ab(CR^hemeacceptor·heme)
(§5) For nESI-MS heme-competition experiments, CR domains were first buffer-exchanged into 50 mM ammonium acetate (pH 6.9) using dialysis or gel filtration and protein concentration was determined by bicinchoninic acid assay or UV-visible absorbance at 280 nm. […]

Test [8] deals with T8, HtaA^CR2 (Corynebacterium diphtheriae, UniProt Q6NIZ1).
T8 construct: gene DIP0625; C-terminal CR domain CR2, HtaA residues 344-506 (G344-G506); N-terminal SUMO/6xHis tag removed by ULP1
The description is as above. The format is binding. To be noted: read-out: estimated KD values for hemin.
Text: as §3, §4, §5

Test [9] deals with T9, HtaB^CR (Corynebacterium diphtheriae, UniProt Q6NIY7).
T9 construct: gene DIP0629; CR domain, HtaB residues 30-273; N-terminal SUMO/6xHis tag removed by ULP1
The test is described as above. In kind it is binding. To be noted: read-out: estimated KD values for hemin.
Text: as §3, §4, §5

T5 sequence (Q6NGJ3 112-291 Y178A): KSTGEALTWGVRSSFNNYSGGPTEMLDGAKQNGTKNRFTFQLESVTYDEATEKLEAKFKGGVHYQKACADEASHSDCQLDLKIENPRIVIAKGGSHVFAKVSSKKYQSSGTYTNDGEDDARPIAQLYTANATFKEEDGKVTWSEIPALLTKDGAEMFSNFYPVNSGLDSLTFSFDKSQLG
T8 sequence (Q6NIZ1 entry or part of it): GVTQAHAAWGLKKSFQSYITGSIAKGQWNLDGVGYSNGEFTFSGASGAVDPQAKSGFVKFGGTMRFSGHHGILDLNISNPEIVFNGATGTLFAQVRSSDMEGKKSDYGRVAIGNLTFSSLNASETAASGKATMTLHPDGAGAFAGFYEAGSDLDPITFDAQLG
T1 sequence (Q6NGJ3 entry or part of it): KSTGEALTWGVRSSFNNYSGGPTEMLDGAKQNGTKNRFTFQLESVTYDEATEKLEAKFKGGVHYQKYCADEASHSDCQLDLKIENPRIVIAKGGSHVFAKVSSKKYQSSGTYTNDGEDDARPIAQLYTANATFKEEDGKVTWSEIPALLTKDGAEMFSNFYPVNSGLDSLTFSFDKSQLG
T7 sequence (Q6NIZ1 entry or part of it): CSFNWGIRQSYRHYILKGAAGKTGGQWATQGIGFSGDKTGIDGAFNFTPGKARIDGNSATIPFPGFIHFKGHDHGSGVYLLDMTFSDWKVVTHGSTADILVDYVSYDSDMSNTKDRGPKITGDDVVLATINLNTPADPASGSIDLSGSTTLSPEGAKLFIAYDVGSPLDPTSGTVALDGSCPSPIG
T9 sequence (Q6NIY7 entry or part of it): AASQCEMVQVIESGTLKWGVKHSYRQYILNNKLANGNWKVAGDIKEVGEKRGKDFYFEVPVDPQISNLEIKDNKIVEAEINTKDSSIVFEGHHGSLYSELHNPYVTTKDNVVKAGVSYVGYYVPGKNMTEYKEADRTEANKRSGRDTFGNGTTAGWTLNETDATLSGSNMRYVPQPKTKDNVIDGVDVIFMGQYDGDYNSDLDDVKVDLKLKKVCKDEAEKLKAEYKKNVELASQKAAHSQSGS
T2 sequence (Q6NGJ3 112-291 K177G): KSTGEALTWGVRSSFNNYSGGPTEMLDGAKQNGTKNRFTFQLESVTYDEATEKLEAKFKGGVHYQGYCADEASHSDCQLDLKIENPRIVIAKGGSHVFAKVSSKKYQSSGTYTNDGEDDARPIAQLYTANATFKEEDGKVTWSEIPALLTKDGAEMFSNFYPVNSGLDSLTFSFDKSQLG

In the case of `C=CC1=C(C)c2cc3[nH]c(cc4nc(cc5[nH]c(cc1n2)c(C)c5CCC(=O)O)C(CCC(=O)O)=C4C)c(C)c3C=C.[Fe+3]` [hemin, ferric heme (iron(III)-protoporphyrin IX; used as hemin chloride)], the Kd is 22.4 ± 5.3 nM in test [1]; 23.6 ± 0.8 nM in [2]; 27.1 ± 9 nM in test [3]; > 500 nM in test [4]; 46.6 ± 9.6 nM in test [5]; 54.8 ± 1.9 nM in test [6]. The Kd in test [7] was 1.1 nM; in [8] it was 0.85 nM; in [9] it was 5.4 nM.

One may read the Kd as the equilibrium constant for the complex coming apart.
